Data on six compounds can be found in ChEMBL document CHEMBL3608293, “Novel Pyrazine Amide Compounds” (ACS Med Chem Lett, 2015).

Structures are written as SMILES.

The assay concerns the target T1, Epithelial sodium channel subunit alpha (Mus musculus, UniProt Q61180).
T1 sequence (Q61180 whole entry): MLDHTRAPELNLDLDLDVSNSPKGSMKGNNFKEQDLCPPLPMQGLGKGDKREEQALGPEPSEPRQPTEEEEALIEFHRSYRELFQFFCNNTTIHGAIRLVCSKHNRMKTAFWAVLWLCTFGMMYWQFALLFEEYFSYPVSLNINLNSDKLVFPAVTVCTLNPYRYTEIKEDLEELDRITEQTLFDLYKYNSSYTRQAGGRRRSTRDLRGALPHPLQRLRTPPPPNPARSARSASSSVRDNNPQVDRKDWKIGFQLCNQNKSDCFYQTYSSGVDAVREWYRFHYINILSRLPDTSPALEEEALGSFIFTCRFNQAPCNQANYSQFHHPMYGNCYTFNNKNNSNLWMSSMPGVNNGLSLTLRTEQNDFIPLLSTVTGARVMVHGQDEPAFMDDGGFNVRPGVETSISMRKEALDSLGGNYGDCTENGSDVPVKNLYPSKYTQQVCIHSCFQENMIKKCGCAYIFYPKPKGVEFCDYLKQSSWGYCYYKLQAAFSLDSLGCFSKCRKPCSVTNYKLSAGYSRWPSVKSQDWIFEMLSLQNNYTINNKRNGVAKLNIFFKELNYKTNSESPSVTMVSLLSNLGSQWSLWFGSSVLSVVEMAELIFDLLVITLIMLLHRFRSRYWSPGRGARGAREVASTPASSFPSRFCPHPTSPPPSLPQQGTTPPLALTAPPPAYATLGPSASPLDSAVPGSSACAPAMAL
The experiment in a line: Inhibition of ENaC in mouse M1 assessed as effect on trans epithelial electrical resistance by measuring short circuit currents by voltage-clamp based Ussing chamber assay.
What is called IC50 is the point on the concentration scale where inhibition reaches its midpoint. As to `COc1ccc(CCC[N@@+]2(C)CCC[C@H](NC(=O)c3nc(Cl)c(N)nc3N)C2)cc1`, the IC50 came to 70 nM. Consider `COc1ccc(CCC[N+]2(CCCc3ccc(C(=O)NCCCN(C)C)cc3)CCCC(NC(=O)c3nc(Cl)c(N)nc3N)C2)cc1` (stereo unspecified), for which the IC50 stood at 20 nM.

For the compound `COc1ccc(CCC[N+]2(CCCc3ccccc3)CCCC(NC(=O)c3nc(Cl)c(N)nc3N)C2)cc1` (stereo unspecified), the IC50 was determined as 6 nM.

In the case of `Nc1nc(N)c(C(=O)N[C@H]2CCC[N+](CCCc3ccc(OCC(=O)NCCn4ccnc4)cc3)(CCCc3ccc(OCC(=O)NCCn4ccnc4)cc3)C2)nc1Cl`, the IC50 is 9 nM. Consider `Nc1nc(N)c(C(=O)N[C@H]2CCC[N+](CCCc3ccc(OCC(=O)NCCCO)cc3)(CCCc3ccc(OCC(=O)NCCCO)cc3)C2)nc1Cl`, for which the half-maximal inhibitory concentration (IC50) was 13 nM. The same measure for `Nc1nc(N)c(C(=O)N[C@H]2CCC[N+](CCCc3ccc(OCC(=O)NCCc4ccccn4)cc3)(CCCc3ccc(OCC(=O)NCCc4ccccn4)cc3)C2)nc1Cl`: 6 nM.
